# Results from PMC9220111, “Pharmacokinetics and Pharmacodynamics of Colistin Methanesulfonate in Healthy Chinese Subjects after Multi-Dose Regimen” (Antibiotics, 2022).
# Entries after “also recorded” stand apart in the source; their conditions may differ. Read-outs that look alike come from different tables or passages of the source. Positions of bridges follow the written chain, without caps; N, C: chain ends. Non-standard residues stand in square brackets, D forms with d. Residues, ends and D or L forms follow the SMILES beside them. *: point of attachment. X1 = CC[C@H](C)CCCCC(=O)*; Dab = NCC[C@H](N)C(=O)O
# Legend:
# [1] = Safety evaluation: clinical adverse events and laboratory tests; type: in vivo, human
# Description: (§1) During the study, close observations and detailed records were kept in all subjects for clinical adverse events (AE), abnormal results of clinical laboratory tests and other specific examinations. The early renal damage indicators, including serum β2-microglobulin, serum Cysteine […] inhibitor C (Cystatin C), urine neutrophils gelatinase-associated lipocalin (NGAL) and urine β2-microglobulin, were tested at day 4 and day 8 after the start of drug administration.
# [2] = Early renal damage indicators, serum creatinine and urea; type: in vivo, human; settings: Day8; individual subjects S01–S12, one line each; normal range 0.7-1.8 mg/L
# Description: as §1
# [3] = human, in vivo, iv
# Description: (§2) A single-center, open-label, multi-dose trial design was conducted following multiple intravenous administrations of CMS in 12 healthy Chinese subjects.
# (§3) The dose regimen was 2.5 mg/kg CBA for 7 consecutive days with 12 h between each administration, except for one dose on day 1 (first dose) and day 7 (last dose). Each intravenous infusion time was 90 ± 10 min.
# (§4) The blood samples were collected on day 1 and day 7 at pre-dose during intravenous infusion (30 min and 60 min after the start of intravenous infusion), immediately after the end of intravenous infusion (1.5 h) and at 1.75 h, 2 h, 2.5 h, 3.5 h, 5 h, 7 h, 9 h, 12 h, 16 h and 24 h after the start of intravenous infusion. From day 2 to day 6, blood samples were collected before and immediately after the end of infusion of the first dose. All blood samples were collected and transferred into an EDTA-K2 tube, and were then centrifuged at 3500 rpm for 10 min at 4 °C. Within 1 h after blood collection, the plasma samples were stored at −70 ± 10 °C until analysis [10].
# (§5) The concentrations of CMS and colistin in plasma and urine samples were analyzed with a verified ultra-performance liquid chromatography tandem mass spectrometry method [30]. To determine the free colistin concentration, the matrix was alkalized with 5% ammonia at 0–4 °C, and CMS concentrations were obtained with acid hydrolysis, and then loaded onto the Oasis weak cation exchange 96-well plate (WCX, Waters, Milford, MA, USA). The standard curves of colistin A/colistin B for the plasma and urine samples ranged from 0.0446/0.0332–4.46/3.32 μg/mL to 0.0223/0.0166–2.23/1.66 μg/mL [10], respectively. The concentrations of colistin and CMS were determined as the major components of colistin A+ colistin B and colistin A methanesulfonate (CMS A) + colistin B methanesulfonate (CMS B), respectively.
# (§6) The PK parameters of CMS and colistin in plasma were calculated by the non-compartment model [23] using the WinNonlin8.0 software (Pharsight, Mountain View, CA, USA). […] The urine excretion rate was calculated according to the correction of renal clearance (CLr). The PK parameters in urine samples calculated included interval urinary excretion rate, cumulative urinary excretion rate and CLr.
# (§7) The PK parameters were expressed as average ± standard deviation (mean ± SD). The main PK parameters after the first and last doses were evaluated by paired t test (SAS 9.4, SAS Institute, Inc., Cary, NC, USA). p value ≤ 0.05 was considered as significant.
# [4] = human, in vivo; cited from earlier work
# [5] = Plasma pharmacokinetics of CMS and colistin after multi-dose intravenous infusions of CMS; settings: for CLr: renal clearance; for Cmax: healthy Chinese subjects, UPLC-MS/MS; for AI (accumulation index): Day 7, after 7 consecutive days of CMS 2.5 mg/kg CBA i.v. q12 h; for clearance: CLt
# Description: as §2, §3, §4, §5, §6, §7
# [6] = Urine excretion of CMS and colistin after multi-dose intravenous infusions of CMS; type: in vivo; settings: human, 12 subjects, mean ± SD, read-out: Cumulative urine excretion rate within 0–24 h
# Description: Urine samples (700 μL) were mixed with equal volume of 1% bovine serum albumin (BSA) prior and stored at −70 ± 10 °C until analysis.
# [7] = cited from earlier work
# Description: CMS in clinic has generally been expressed as the internationally accepted term of c ... || A new CMS formula was produced with a 4:1 ratio of CMS A:CMS B, and met the requirements of the European Pharmacopoeia EP9.2 [9]. […] The Cavg,ss (95% CI) was 0.92 (0.85, 0.99) μg/mL after 7 days of 2.5 mg/kg CBA every 12 h (q12 h) administration of this new formulation, as simulated by the obtained single-dose PK parameters. The purpose of this study was to investigate the PK characteristics of CMS and colistin in plasma and urine following multip ... || This study evaluated the applicability of CMS at the recommended dosing regimen (2.5 mg/kg CBA q12 h) for the first time in Chinese subjects.
# [8] = system: extremely drug-resistant (XDR) P. aeruginosa; settings: cited from earlier work
# [9] = value used to calculate fAUC0–24; cited from earlier work
# Description: The target values of fAUC0–24/MIC used in this study were from published PK/PD study reports of colistin, conducted on animal infection models. […] The free colistin fraction f used was 50% [6, 31]. AUC0–24,ss values from this study were calculated as 2 times AUC0–12 on day 7 based on the twi ...
# [10] = 12 healthy Chinese subjects, CMS 2.5 mg/kg CBA i.v. q12 h 7 days
# [11] = individual healthy Chinese subjects S01–S12, one line each, CMS 2.5 mg/kg CBA i.v. q12 h 7 days
# [12] = Day 1 (first dose), CMS 2.5 mg/kg CBA i.v., mean ± SD, n = 12, SD
# [13] = Day 1 (first dose), CMS 2.5 mg/kg CBA i.v., plasma, mean ± SD, n = 12, SD
# [14] = Day 1 (first dose), CMS 2.5 mg/kg CBA i.v., mean ± SD, n = 12, day 1 urine stored without BSA, for reference only, SD
# [15] = Day 7 (last dose), CMS 2.5 mg/kg CBA i.v. q12 h 7 days, mean ± SD, n = 12, SD
# [16] = Day 7 (last dose, steady state), CMS 2.5 mg/kg CBA i.v. q12 h 7 days, plasma, mean ± SD, n = 12, SD
# [17] = earlier CMS formula, CMS A:CMS B 1:2, healthy Chinese subjects
# [18] = 33 patients with XDR P. aeruginosa UTIs
# [19] = human, plasma, iv, 2.5 mg/kg CBA, SD
compound,measurement,setting,value
Colistin methanesulfonate [CMS],Deaths or serious adverse events,[1]; [10],No serious adverse events were observed; also recorded: No deaths or other serious adverse events occurred
same,"Vital signs, QTc and electrocardiogram",[1]; [10],No abnormal vital signs nor QTc prolongations or other clinically significant electrocardiogram abnormalities were found
same,Nephrotoxicity,"[1]; 12 healthy Chinese subjects, CMS 2.5 mg/kg CBA i.v. q12 h 7 days, no increase in urine β2 microglobulin and urine NGAL",no nephrotoxicity was observed; also recorded: No obvious nephrotoxicity occurred
same,Subjects with adverse effects,"[1]; 12 healthy Chinese subjects, after multi-dose i.v. infusions of CMS, all mild and transient",Eleven out of the twelve
same,Abnormality in Laboratory Test,[1]; [11],Normal; also recorded: Decreased absolute value of neutrophils (2 days)
same,Clinical Adverse Event (Duration),[1]; [11],Facial itchiness (4 days and 12 h) Tongue numbness (5 days and 2 h) Dizziness (2 days and 16 h); also recorded: Facial itchiness (2 days and 3 h) Tongue numbness (5 days and 8 h); also recorded: Tongue numbness (6 days and 12 h) Lip numbness (5 days and 10 h) Sore throat (1 day and 23 h) Erythema (6 days and 13 h); also recorded: Normal; also recorded: Tongue numbness (5 days and 20 h) Dizziness (4 h); also recorded: Tongue numbness (5 days and 14 h); also recorded: Tongue numbness (5 days and 8 h) Dizziness (2 days and 13 h) Headache (1 day and 19 h) Lip numbness (1 day and 10 h) Skin itchiness (1 day and 20 h); also recorded: Tongue numbness (5 days and 20 h) Lip numbness (2 days and 15 h) Pharyngeal discomfort (5 days and 16 h) Facial numbness (4 days and 16 h)
same,serum β2-microglobulin,[2],1.72 mg/L
same,"T1/2, median",[3],1.72 h
same,half-life,[3],1.52 h
same,incidence of nephrotoxicity,[4],26.0–74.1%
same,CLt,[5]; [12],1.3 ± 0.33 mL/min/kg
same,Vd,[5]; [12],0.15 ± 0.03 L/kg
same,fm (fraction of CMS converted to colistin in the body),[5]; [12],0.27 ± 0.12
same,AUC0–12,[5]; [13],53730 ± 9770 ng·h/mL
same,AUC0–24,[5]; [13],53960 ± 9930 ng·h/mL
same,CLr,[5]; [14],1 ± 0.17 mL/min/kg
same,Cmax,"[5]; Day 1 (first dose), CMS 2.5 mg/kg CBA i.v. infusion 90 min, plasma, non-compartment model, mean ± SD, n = 12, SD",22200 ± 4380 ng/mL
same,fm (fraction of CMS converted to colistin in the body),[5]; [15],0.45 ± 0.15
same,CLr,[5]; [15],0.67 ± 0.33 mL/min/kg
same,CLt,"[5]; Day 7 (last dose, steady state), CMS 2.5 mg/kg CBA i.v. q12 h 7 days, mean ± SD, n = 12, SD",1.3 ± 0.33 mL/min/kg
same,"Cavg,ss",[5]; [16],4410 ± 754 ng/mL
same,"Cmin,ss",[5]; [16],133 ± 141 ng/mL
same,AI (accumulation index),"[5]; mean ± SD, n = 12, SD",1.07 ± 0.10
CC[C@H](C)CCCCC(=O)N[C@@H](CCN)C(=O)N[C@H](C(=O)N[C@@H](CCN)C(=O)N[C@H]1CCNC(=O)[C@H]([C@@H](C)O)NC(=O)[C@H](CCN)NC(=O)[C@H](CCN)NC(=O)[C@H](CC(C)C)NC(=O)[C@@H](CC(C)C)NC(=O)[C@H](CCN)NC1=O)[C@@H](C)O [colistin] (X1-[Dab]T[Dab][Dab][Dab][dL]L[Dab][Dab]T; lactam 4-C),dose excreted,"[6]; after the first dose, CMS 2.5 mg/kg CBA i.v., day 1 urine stored without BSA, for reference only",0.41 ± 0.28%
same,dose excreted,"[6]; urine, 2.5 mg/kg CBA, after the last dose (steady state), CMS 2.5 mg/kg CBA i.v. q12 h 7 days",1.22 ± 0.7%
same,"plasma Cavg,ss of colistin","[7]; 51 critically ill patients with normal renal function (CLCr ≥ 80 mL/min), FDA-recommended dose 2.5–5 mg CBA/kg",1.29 (0.45–5.28) μg/mL
same,"median Cavg,ss concentration","[7]; 87 critically ill patients with CrCL >120 mL/min, loading dose 9 MIU then 4.5 MIU twice daily",1.6 (0.4–4.8) μg/mL
same,"median concentration (plasma Cavg,ss of colistin)",[7]; 214 patients with different renal functions,2.35 (0.24–9.92) μg/mL
same,"AUC0–12,ss",[7]; [17],9230 ± 1790 ng·h/mL
same,"Cavg,ss",[7]; [17],760 ± 151 ng/mL
same,"AUC0–12,ss","[7]; healthy Japanese subjects, CMS 2.5 mg/kg CBA i.v. twice a day for 2.5 days",25700 ± 7490 ng·h/mL
same,"Patients achieving Cavg,ss at ≥1 μg/mL",[7]; patients with normal renal function at the recommended doses of EMA and FDA,65–75%
same,"Cavg,ss (95% CI)","[7]; simulated from single-dose PK parameters, 7 days of 2.5 mg/kg CBA q12 h of the new formulation","0.92 (0.85, 0.99) μg/mL"
same,AUC0–24/MIC,[8]; [18],60.5 ± 56.4
same,fAUC0–24/MIC,[8]; [18],30.2 ± 28.2
same,"Cavg,ss",[8]; patients with XDR P. aeruginosa UTIs,1.19 (0.21–5.20) μg/mL
same,free colistin fraction f,[9],50%
same,CLr,[5]; [14],0.013 ± 0.0067 mL/min/kg
same,CLr,[5]; [15],0.025 ± 0.012 mL/min/kg
same,"Cavg,ss",[5]; [16],1270 ± 270 ng/mL
same,"Cmin,ss",[5]; [16],670 ± 220 ng/mL
same,AI (accumulation index),"[5]; mean ± SD, n = 12, SD",1.32 ± 0.06
same,AUC(0-t),"[5]; human, plasma, iv, 2.5 mg/kg CBA, AUC0–12 (AUC0–12,ss), Day 7 (last dose, steady state), CMS 2.5 mg/kg CBA i.v. q12 h 7 days, plasma, mean ± SD, n = 12, SD",15300 ± 3290 ng·h/mL
same,AUC(0-t),"[5]; human, plasma, iv, 2.5 mg/kg CBA, AUC0–12, Day 1 (first dose), CMS 2.5 mg/kg CBA i.v., plasma, mean ± SD, n = 12, SD",9800 ± 1710 ng·h/mL
same,AUC(0-t),"[5]; human, plasma, iv, 2.5 mg/kg CBA, AUC0–24, Day 1 (first dose), CMS 2.5 mg/kg CBA i.v., plasma, mean ± SD, n = 12, SD",12600 ± 2550 ng·h/mL
same,clearance,"[5]; human, plasma, iv, 2.5 mg/kg CBA, Day 1 (first dose), CMS 2.5 mg/kg CBA i.v., mean ± SD, n = 12, SD",3.5 mL/min/kg
same,clearance,"[5]; human, plasma, iv, 2.5 mg/kg CBA, Day 7 (last dose, steady state), CMS 2.5 mg/kg CBA i.v. q12 h 7 days, mean ± SD, n = 12, SD",3 mL/min/kg
same,Cmax,"[5]; human, plasma, iv, 2.5 mg/kg CBA, Cmax, Day 1 (first dose), CMS 2.5 mg/kg CBA i.v. infusion 90 min, plasma, non-compartment model, mean ± SD, n = 12, SD",1170 ± 180 ng/mL
same,Cmax,"[5]; human, plasma, iv, 2.5 mg/kg CBA, Cmax, Day 7 (last dose, steady state), CMS 2.5 mg/kg CBA i.v. q12 h 7 days, plasma, mean ± SD, n = 12, SD",1790 ± 370 ng/mL
same,half-life,"[5]; human, plasma, iv, 2.5 mg/kg CBA, T1/2, Day 1 (first dose), CMS 2.5 mg/kg CBA i.v., plasma, mean ± SD, n = 12, SD",5.15 ± 0.95 h
same,half-life,"[5]; human, plasma, iv, 2.5 mg/kg CBA, T1/2, Day 7 (last dose), CMS 2.5 mg/kg CBA i.v. q12 h 7 days, plasma, mean ± SD, n = 12, SD",5.9 ± 0.58 h
same,half-life,"[5]; human, plasma, iv, 2.5 mg/kg CBA, T1/2, median, after the first dose, median, n = 12",4.97 h
same,half-life,"[5]; human, plasma, iv, 2.5 mg/kg CBA, T1/2, median, after the last dose, median, n = 12",6.1 h
same,Tmax,"[5]; human, plasma, iv, 2.5 mg/kg CBA, Day 1 (first dose), CMS 2.5 mg/kg CBA i.v., plasma, mean ± SD, n = 12, SD",4.42 ± 0.9 h
same,Tmax,"[5]; human, plasma, iv, 2.5 mg/kg CBA, Day 7 (last dose), CMS 2.5 mg/kg CBA i.v. q12 h 7 days, plasma, mean ± SD, n = 12, SD",3.38 ± 0.68 h
same,Tmax,"[5]; human, plasma, iv, 2.5 mg/kg CBA, median, after the first dose, median, n = 12",5 h
same,Tmax,"[5]; human, plasma, iv, 2.5 mg/kg CBA, median, after the last dose, median, n = 12",3.5 h
same,Vd,"[5]; human, plasma, iv, 2.5 mg/kg CBA, Vd, Day 1 (first dose), CMS 2.5 mg/kg CBA i.v., mean ± SD, n = 12, SD",1.52 ± 0.22 L/kg
same,Vd,"[5]; human, plasma, iv, 2.5 mg/kg CBA, Vd, Day 7 (last dose, steady state), CMS 2.5 mg/kg CBA i.v. q12 h 7 days, mean ± SD, n = 12, SD",1.66 ± 0.25 L/kg
same,level at 48 h,[5]; [19],93 ± 42.8 ng/mL
same,level at 72 h,[5]; [19],632 ± 155 ng/mL
same,level at 96 h,[5]; [19],684 ± 177 ng/mL
same,level at 120 h,[5]; [19],738 ± 217 ng/mL
same,level at 144 h,[5]; [19],754 ± 238 ng/mL
